From US6544930B2, “Compact storage and shipping system for glyphosate herbicide” (Monsanto Technology LLC, priority 1998, dated 2003)
Structures can show the parent of a compound that is named as a salt.

Experiments:
[1] = Specific gravity / density of aqueous glyphosate salt solutions and compositions (Mettler DA-300 meter); type: physicochemical
Procedure: Specific gravities are measured using a Mettler DA-300 Density/Specific Gravity Meter.
In a 1 liter glass vessel with magnetic stirrer are mixed 479.2 g glyphosate acid, technical grade (assay 96%), 166.0 g monoethanolamine and water to 1000 g. Reaction of the glyphosate acid with the monoethanolamine to form the MEA salt of glyphosate is exothermic. The reaction mixture is allowed to cool to room temperature. […] The density of the solution at 25° C. is […], thus the volume at 25° C. of 1000 g of this solution is 763 ml and the weight/volume concentration of glyphosate is 602 g a.e./l.
A series of aqueous solutions of glyphosate MEA salt, having a range of glyphosate a.e. concentrations, are prepared by the general procedure of Example 1. Specific gravity is measured for each solution.
[…] Cloud point is a measure of the maximum temperature at which a given aqueous composition containing a surfactant and a salt at defined concentrations forms a single-phase solution. Above the cloud point, the surfactant separates from the solution, initially as a hazy or cloudy dispersion, and, upon standing, as a distinct phase generally rising to the surface of the solution. Cloud point is determined by heating the composition until the solution becomes cloudy, and then allowing the composition to cool, with agitation, while its temperature is continuously monitored. A temperature reading taken when the solution clears is a measure of cloud point.

[2] = cited from earlier work
[3] = Glyphosate a.e. weight/volume concentration of salt solution; type: physicochemical; conditions: for weight/volume concentration of glyphosate: 25° C., 46.0% by weight glyphosate a.e.; for glyphosate a.e. contained in 1 liter of solution: 30% a.e. by weight solution at 20° C.; for more glyphosate a.e. per liter than IPA salt solution: equal a.e. weight concentration (30% a.e. by weight, 20° C.)
Procedure: Thus 1 liter of 30% a.e. by weight glyphosate potassium salt solution at 20° C. contains approximately 376 g glyphosate a.e./l, whereas 1 liter of 30% a.e. by weight glyphosate IPA salt solution at 20° C. contains approximately 347 g glyphosate a.e./l. In other words, at equal a.e. weight concentration, the potassium salt solution delivers about 8% more glyphosate a.e. per liter.
Similarly, 1 liter of 30% a.e. by weight glyphosate MEA salt solution at 20° C. contains approximately 371 g glyphosate a.e./l. Therefore at equal a.e. weight concentration, the MEA salt solution delivers about 7% more glyphosate a.e. per liter than an IPA salt solution.
In a 1 liter glass vessel with magnetic stirrer are mixed 479.2 g glyphosate acid, technical grade (assay 96%), 166.0 g monoethanolamine and water to 1000 g. Reaction of the glyphosate acid with the monoethanolamine to form the MEA salt of glyphosate is exothermic. The reaction mixture is allowed to cool to room temperature. The specific gravity (20/15.6° C.) of the resulting 62.6% by weight aqueous solution of glyphosate MEA salt, containing 46.0% by weight glyphosate a.e., is measured and found to be 1.32. The density of the solution at 25° C. is […], thus the volume at 25° C. of 1000 g of this solution is 763 ml and the weight/volume concentration of glyphosate is 602 g a.e./l.

[4] = Viscosity of glyphosate salt solutions and compositions; type: physicochemical; conditions: 25° C.; 46% a.e. by weight solution without surfactant
Procedure: Specific gravity (20/15.6° C.), viscosity at 25° C. and cloud point are recorded for each composition prepared as shown in Table 5. Cloud point is a measure of the maximum temperature at which a given aqueous composition containing a surfactant and a salt at defined concentrations forms a single-phase solution. Above the cloud point, the surfactant separates from the solution, initially as a hazy or cloudy dispersion, and, upon standing, as a distinct phase generally rising to the surface of the solution. Cloud point is determined by heating the composition until the solution becomes cloudy, and then allowing the composition to cool, with agitation, while its temperature is continuously monitored. A temperature reading taken when the solution clears is a measure of cloud point.
The maximum surfactant concentration attainable in practice in an aqueous concentrate composition containing glyphosate salt at 540 g a.e./l is compared for MEA and IPA salts. This is determined by adding a selected surfactant in increments to a 46% a.e. by weight aqueous solution of the glyphosate salt until the glyphosate weight/volume concentration falls from its initial level (565 g a.e./l for IPA salt, 602 g a.e./l for MEA salt) to 540 g a.e./l. […] When the maximum attainable surfactant concentration is reached, viscosity is measured at 25° C. […]

Solubility in water = type: physicochemical; conditions: 20° C.; for solubility in pure water: weight of salt per weight of solution
Excerpt: Solubility in water of the potassium and MEA salts of glyphosate is believed not to be recorded in prior art but is readily determined by procedures familiar to those skilled in the art. Similarly, aqueous solutions of these salts at concentrations greater than about 40% by weight are believed not to have been specifically disclosed, thus any unusual or unpredicted properties of such solutions have not been publicly known. Concentrations expressed as percent by weight herein relate to parts by weight of salt or acid equivalent per 100 parts by weight of solution.
The solubility of the MEA salt is very similar to the solubility of the IPA salt.

[5] = Maximum attainable surfactant concentration at 540 g a.e./l glyphosate; type: physicochemical
Procedure: The maximum surfactant concentration attainable in practice in an aqueous concentrate composition containing glyphosate salt at 540 g a.e./l is compared for MEA and IPA salts. This is determined by adding a selected surfactant in increments to a 46% a.e. by weight aqueous solution of the glyphosate salt until the glyphosate weight/volume concentration falls from its initial level (565 g a.e./l for IPA salt, 602 g a.e./l for MEA salt) to 540 g a.e./l. The study is conducted using either Surfactant A or Surfactant F of Table 3 above. When the maximum attainable surfactant concentration is reached, viscosity is measured at 25° C.

[6] = 20/18.6° C., 30% a.e. by weight monobasic salt solution
[7] = 20/15.6° C., solution containing 46.0% by weight glyphosate a.e.
[8] = MEA salt solution 29.9% a.e. by weight, IPA salt solution 30.2%

O=C(O)CNCP(=O)(O)O
Specific Gravity [1, 6]: 1.1814

CCN.O=C(O)CNCP(=O)(O)O
Specific Gravity [1, 6]: 1.1599

CCCN.O=C(O)CNCP(=O)(O)O
Specific Gravity [1, 6]: 1.1429

O=C(O)CNCP(=O)(O)O [Glyphosate, N-phosphonomethylglycine]
solubility in water ([2]; 25° C.): 1.16 % by weight

CC(C)N.O=C(O)CNCP(=O)(O)O [glyphosate IPA salt, isopropylammonium salt of glyphosate]
Specific Gravity [1, 7]: 1.24
Specific Gravity [1, 6]: 1.1554
Specific Gravity [1, 8]: 1.1566
weight/volume concentration of glyphosate [3]: 565 g a.e./l
glyphosate a.e. contained in 1 liter of solution [3]: approximately 347 g glyphosate a.e./l
viscosity [4]: 165 cPs
limit of solubility in aqueous solution ([2]; only slightly higher than about 62% by weight): > 62 % by weight

O=C(O)CNCP(=O)(O)O [glyphosate MEA salt, monoethanolammonium salt of glyphosate]
solubility in pure water as glyphosate acid equivalent (Solubility in water): about 47 % a.e. by weight
solubility in pure water as glyphosate acid equivalent (Solubility in water; listed as MEA salt): about 47 % a.e. by weight
solubility in pure water (Solubility in water): about 64 % by weight
Specific Gravity [1, 7]: 1.32
Specific Gravity ([1]; 20/18.6° C., 30% a.e. by weight monobasic salt solution, listed as monoethanolammonium (MEA)): 1.2357
specific gravity higher than that of 30.2% IPA salt solution ([1]; 29.9% a.e. by weight MEA salt solution): 3.7%
Specific Gravity [1, 8]: 1.1991
specific gravity compared with corresponding IPA salt solution ([1]; all concentrations, FIG. 1): significantly higher
weight/volume concentration of glyphosate [3]: 602 g a.e./l
glyphosate a.e. contained in 1 liter of solution [3]: approximately 371 g glyphosate a.e./l
more glyphosate a.e. per liter than IPA salt solution [3]: about 7%
viscosity [4]: 88 cPs
surfactant concentration relative to the maximum attainable using the IPA salt [5]: more than 2.5 times

O=C(O)CNCP(=O)(O)O [glyphosate potassium salt]
solubility in pure water as glyphosate acid equivalent (Solubility in water; listed as potassium salt, potassium salt): about 44 % a.e. by weight
solubility in pure water as glyphosate acid equivalent (Solubility in water; potassium salt): about 44 % a.e. by weight
solubility in pure water (Solubility in water; potassium salt): about 54 % by weight
Specific Gravity ([1]; 20/18.6° C., 30% a.e. by weight monobasic salt solution, potassium salt): 1.2539
glyphosate a.e. contained in 1 liter of solution ([3]; potassium salt): approximately 376 g glyphosate a.e./l
more glyphosate a.e. per liter than IPA salt solution ([3]; potassium salt): about 8%

CN [methylammonium]
Specific Gravity [1, 6]: 1.1667

C[S+](C)C.O=C([O-])CNCP(=O)(O)O [trimethylsulfonium (TMS)]
Specific Gravity [1, 6]: 1.1904
